The subject of experiment [1] is Meloidogyne incognita. The experiment in a line: Example A: Meloidogyne incognita test (gall formation on lettuce roots in sand). It is filed as in vivo. Particulars: nematicidal action by gall formation, 100% = no galls. The text has this:
(§1) • The expected activity for a given combination of two active ingredients can be calculated as follows, according to S. R. Colby (“Calculating Synergistic and Antagonistic Responses of Herbicide Combinations”, Weeds 15, 20-22, 1967): • If • X is the kill rate, expressed as % of the untreated control, when using active ingredient A at an application rate of m g/ha or in a concentration of m ppm, • Y is the kill rate, expressed as % of the untreated control, when using active ingredient B at an application rate of n g/ha or in a concentration of n ppm and • E is the kill rate, expressed as % of the untreated control, when using active ingredients A and B at application rates of m and n g/ha or in a concentration of m and n ppm, • then
(§2) [formula] • If the actual kill rate is greater than the calculated kill rate (E), the action of the combination is superadditive, i.e. a synergistic effect is present.
(§3) Meloidogyne incognita Test
(§4) • Solvent: 125.0 parts by weight of acetone
(§5) To produce an appropriate active ingredient formulation, 1 part by weight of active ingredient is mixed with the stated amount of solvent and the concentrate is diluted to the desired concentration with water.
(§6) Vessels are filled with sand, active ingredient solution, an egg/larvae suspension of the southern root-knot nematode (Meloidogyne incognita) and lettuce seeds. The lettuce seeds germinate and the plants develop. The galls develop on the roots.
(§7) After the desired period of time, the nematicidal action is determined in % by the gall formation. 100% means that no galls were found; 0% means that the number of galls on the treated plants corresponds to the untreated control. The values ascertained are entered into Colby's formula.

Experiment [2] concerns Meloidogyne incognita. As to the kind of experiment: Example B: Meloidogyne incognita test (gall formation on lettuce roots in sand). It is filed as in vivo. Particulars: nematicidal action by gall formation, 100% = no galls.
Description: as §1, §2, §3, §4, §5, §6, §7

Structures are written as SMILES.

Regarding `O=C(Nc1ccn(-c2c(F)cccc2F)n1)c1ccccc1C(F)(F)F` [Compound (B-1)], the “Effect in % after 14 days” value in the experiment on Meloidogyne incognita [1] (3 ppm) is 0%; in the experiment on Meloidogyne incognita [1] (6 ppm) it was 0%; with Meloidogyne incognita [1] (12 ppm), 70%.
Turning to `Cc1cc(Cl)cc(C)c1C1=C(O)C2(CCC3(CC2)OCCO3)NC1=O` [Compound (I-2)], the “Effect in % after 14 days” value with Meloidogyne incognita [2] (0.4 ppm), in the experiment on Meloidogyne incognita [2] (0.8 ppm), in the experiment on Meloidogyne incognita [2] (1.6 ppm), in the experiment on Meloidogyne incognita [1] (1.2 ppm), in the experiment on Meloidogyne incognita [1] (2.4 ppm) and in the experiment on Meloidogyne incognita [1] (4.8 ppm) was 0% throughout.
On to `c1ccc(-c2noc(-c3cccs3)n2)cc1` [Tioxazafen (B-2), Tioxazafen], for which the “Effect in % after 14 days” value is on record as 0% in the experiment with Meloidogyne incognita [2] (1.6 ppm), 0% with Meloidogyne incognita [2] (3.2 ppm) and 70% with Meloidogyne incognita [2] (6.4 ppm).

Values taken from patent US12089597B2, “Active ingredient combinations with insecticidal, nematicidal and acaricidal properties” (BAYER AKTIENGESELLSCHAFT, priority 2018, dated 2024).
